From patent US20240116985A1, “STAPLED PEPTIDES AND METHODS THEREOF” (priority 2020, published 2024)
Read-outs that look alike come from different tables or passages of the source.

How the values were obtained:
[1] = target: T1, full-length beta-Catenin (Uniprot ID P35222) (Homo sapiens, UniProt P35222); assay: Fluorescence polarization IC50 (beta-catenin / 5FAM-TCF4 10-53 competition); type: binding
T1 construct: 10 nM full-length beta-Catenin (Uniprot ID P35222)
T1 sequence (P35222 1-781): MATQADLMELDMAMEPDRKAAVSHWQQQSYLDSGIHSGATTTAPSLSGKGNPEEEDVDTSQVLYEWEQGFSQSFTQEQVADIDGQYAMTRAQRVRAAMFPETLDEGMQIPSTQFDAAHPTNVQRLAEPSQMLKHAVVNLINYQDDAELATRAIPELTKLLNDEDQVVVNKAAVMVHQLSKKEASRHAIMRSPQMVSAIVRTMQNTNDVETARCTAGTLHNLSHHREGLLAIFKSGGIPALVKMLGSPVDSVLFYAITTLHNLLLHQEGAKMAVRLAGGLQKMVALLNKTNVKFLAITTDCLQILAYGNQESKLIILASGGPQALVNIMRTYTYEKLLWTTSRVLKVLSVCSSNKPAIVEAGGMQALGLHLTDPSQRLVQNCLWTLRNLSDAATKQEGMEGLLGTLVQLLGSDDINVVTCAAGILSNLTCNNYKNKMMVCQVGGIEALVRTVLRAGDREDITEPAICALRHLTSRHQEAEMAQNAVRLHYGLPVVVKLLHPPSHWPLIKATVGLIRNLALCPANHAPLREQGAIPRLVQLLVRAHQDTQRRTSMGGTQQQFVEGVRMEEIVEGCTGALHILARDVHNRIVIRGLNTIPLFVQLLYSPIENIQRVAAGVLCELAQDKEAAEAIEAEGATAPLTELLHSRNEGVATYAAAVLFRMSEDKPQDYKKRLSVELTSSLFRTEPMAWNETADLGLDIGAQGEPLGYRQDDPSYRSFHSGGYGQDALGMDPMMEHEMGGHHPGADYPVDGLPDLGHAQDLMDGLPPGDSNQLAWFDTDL

CHI Log D procedure = type: physicochemical; details: for CHI Log D: pH 7.4
[2] = Table E2-1, read-out: beta-Catenin FP IC50
[3] = fluorescence polarization, beta-catenin, read-out: FP EC50

IC50 [1, 2] [nM] | IC50 [1, 3] [nM] | CHI Log D (CHI Log D procedure) | chromatographic logD (CHI Log D procedure; pH 7.4, CHI Log D) | logD (CHI Log D procedure; pH 7.4, CHI Log D) | SMILES
3190 | 3190 | 1.469 | – | – | CC(=O)N1CCC[C@]12CC=CCCCC1(CCCC=CCOC(=O)N(C)CCC[C@@](C)(C(=O)N[C@@H](Cc3ccccc3)C(=O)N[C@@H](Cc3c[nH]c4ccccc34)C(=O)N[C@@H](CCC(N)=O)C(N)=O)NC(=O)[C@H](C(C)C)NC(=O)[C@H](Cc3ccccc3)NC(=O)[C@H](C)NC(=O)[C@H](C)NC(=O)[C@H](CC(=O)O)NC(=O)[C@H](CC(=O)O)NC1=O)NC(=O)[C@H](C)NC(=O)[C@H](CC(=O)O)NC2=O (stereo partly drawn) [I-54, Ac-PL3-Asp-Ala-B5-Asp-Asp-Ala-Ala-Phe-Val-SeN-Phe-Trp-Gln-NH2]
5000 | – | – | 1.35 | – | CC(=O)N1CCC[C@]12CC=CCCCC1(CCCC=CCOC(=O)N(C)CC[C@@](C)(C(=O)N[C@@H](Cc3ccccc3)C(=O)N[C@@H](Cc3c[nH]c4ccccc34)C(=O)N[C@@H](CCC(N)=O)C(N)=O)NC(=O)[C@H](C(C)C)NC(=O)[C@H](Cc3ccccc3)NC(=O)[C@H](C)NC(=O)[C@H](C)NC(=O)[C@H](CC(=O)O)NC(=O)[C@H](CC(=O)O)NC1=O)NC(=O)[C@H](C)NC(=O)[C@H](CC(=O)O)NC2=O (stereo partly drawn) [I-55, Ac-PL3-Asp-Ala-B5-Asp-Asp-Ala-Ala-Phe-Val-SdN-Phe-Trp-Gln-NH2]
5000 | – | – | 1.24 | – | CC(=O)N[C@@H](Cc1ccccc1)C(=O)N[C@@H](CC(=O)O)C(=O)N[C@@H](C)C(=O)N[C@]1(C)CCCCCCC=CCOC(=O)N2CC[C@@](C(=O)N[C@@H](Cc3ccccc3)C(=O)N[C@@H](Cc3c[nH]c4ccccc34)C(=O)N[C@@H](CCC(N)=O)C(N)=O)(C2)NC(=O)[C@H](C(C)C)NC(=O)[C@H](Cc2ccc(F)cc2)NC(=O)[C@H](C)NC(=O)[C@H](C)NC(=O)[C@H](CC(=O)O)NC(=O)[C@H](CC(=O)O)NC1=O [I-78, Ac-Phe-Asp-Ala-R8-Asp-Asp-Ala-Ala-4FF-Val-PyrS-Phe-Trp-Gln-NH2]
2110 | – | – | 1.98 | – | CC(=O)N1CCC[C@]12CC=CCCCC1(CCCC=CCCCCCC[C@@](C)(C(=O)N[C@@H](Cc3ccccc3)C(=O)N[C@@H](Cc3c[nH]c4ccccc34)C(=O)N[C@@H](CCC(N)=O)C(N)=O)NC(=O)[C@H](C(C)C)NC(=O)[C@H](Cc3ccccc3)NC(=O)[C@H](C)NC(=O)[C@H](C)NC(=O)[C@H](CCC(=O)O)NC(=O)[C@H](CC(=O)O)NC1=O)NC(=O)[C@H](C)NC(=O)[C@H](CC(=O)O)NC2=O (stereo partly drawn) [I-123, Ac-PL3-Asp-Ala-B5-Asp-Glu-Ala-Ala-Phe-Val-S8-Phe-Trp-Gln-NH2]
3060 | 3060 | 2.256 | – | – | CC(=O)N1CCC[C@]12CC=CCCCC1(CCCC=CCCCCCC[C@@](C)(C(=O)N[C@@H](Cc3ccccc3)C(=O)N[C@@H](Cc3c[nH]c4ccccc34)C(=O)N[C@@H](CCC(N)=O)C(N)=O)NC(=O)[C@H](C(C)C)NC(=O)[C@H](Cc3ccccc3)NC(=O)[C@H](C)NC(=O)[C@H](C)NC(=O)[C@H](CC(N)=O)NC(=O)[C@H](CC(=O)O)NC1=O)NC(=O)[C@H](C)NC(=O)[C@H](CC(=O)O)NC2=O (stereo partly drawn) [I-125, Ac-PL3-Asp-Ala-B5-Asp-Asn-Ala-Ala-Phe-Val-S8-Phe-Trp-Gln-NH2]
2160 | 2160 | 1.496 | – | – | CC(=O)N1CCC[C@]12CC=CCCCC1(CCCC=CCOC(=O)N(C)CCC[C@@](C)(C(=O)N[C@@H](Cc3ccccc3)C(=O)N[C@@H](Cc3c[nH]c4ccccc34)C(=O)N[C@@H](CCC(N)=O)C(N)=O)NC(=O)[C@H](C(C)C)NC(=O)[C@H](Cc3ccccc3)NC(=O)[C@H](C)NC(=O)[C@H](C)NC(=O)[C@H](CCC(=O)O)NC(=O)[C@H](CC(=O)O)NC1=O)NC(=O)[C@H](C)NC(=O)[C@H](CC(=O)O)NC2=O (stereo partly drawn) [I-131, Ac-PL3-Asp-Ala-B5-Asp-Glu-Ala-Ala-Phe-Val-SeN-Phe-Trp-Gln-NH2]
1870 | – | – | 2.18 | – | CC(=O)N1CCC[C@]12CC=CCCCC1(CCCC=CCCCCCC[C@@](C)(C(=O)N[C@@H](Cc3ccccc3)C(=O)N[C@@H](Cc3c[nH]c4ccccc34)C(=O)N[C@@H](C)C(N)=O)NC(=O)[C@H](C(C)C)NC(=O)[C@H](Cc3ccccc3)NC(=O)[C@H](C)NC(=O)[C@H](C)NC(=O)[C@H](CCC(=O)O)NC(=O)[C@H](CC(=O)O)NC1=O)NC(=O)[C@H](C)NC(=O)[C@H](CC(=O)O)NC2=O (stereo partly drawn) [I-135, Ac-PL3-Asp-Ala-B5-Asp-Glu-Ala-Ala-Phe-Val-S8-Phe-Trp-Ala-NH2]
2270 | – | – | 2.07 | – | CC(=O)N1CCC[C@]12CC=CCCCC1(CCCC=CCCCCCC[C@@](C)(C(=O)N[C@@H](Cc3ccccc3)C(=O)N[C@@H](Cc3ccc4ccccc4n3)C(=O)N[C@@H](CCC(N)=O)C(N)=O)NC(=O)[C@H](C(C)C)NC(=O)[C@H](Cc3ccccc3)NC(=O)[C@H](C)NC(=O)[C@H](C)NC(=O)[C@H](CCC(=O)O)NC(=O)[C@H](CC(=O)O)NC1=O)NC(=O)[C@H](C)NC(=O)[C@H](CC(=O)O)NC2=O (stereo partly drawn) [I-143, Ac-PL3-Asp-Ala-B5-Asp-Glu-Ala-Ala-Phe-Val-S8-Phe-Qui-Gln-NH2]
1640 | – | – | 1.4 | – | CC[C@H](C)[C@H](NC(=O)[C@H](CC(=O)O)NC(=O)C(C)(C)NC(C)=O)C(=O)N[C@]1(C)CCN(C)C(=O)OCC=CCCCCC[C@@](C)(C(=O)N[C@@H](Cc2ccccc2)C(=O)N[C@@H](Cc2c[nH]c3ccccc23)C(N)=O)NC(=O)[C@H](CCC(N)=O)NC(=O)[C@H](Cc2ccccc2)NC(=O)[C@H](C)NC(=O)[C@H](C)NC(=O)[C@H](CCC(=O)O)NC(=O)[C@H](CC(=O)O)NC1=O [I-147, Ac-Aib-Asp-Ile-RdN-Asp-Glu-Ala-Ala-Phe-Gln-S7-Phe-Trp-NH2]
5000 | – | – | 1.34 | – | CC[C@H](C)[C@H](NC(=O)[C@H](CC(=O)O)NC(=O)[C@H](C)NC(C)=O)C(=O)N[C@]1(C)CCN(C)C(=O)OCC=CCCCCC[C@@](C)(C(=O)N[C@@H](Cc2ccccc2)C(=O)N[C@@H](Cc2c[nH]c3ccccc23)C(=O)N[C@@H](Cc2c[nH]cn2)C(N)=O)NC(=O)[C@H](C)NC(=O)[C@H](Cc2ccccc2)NC(=O)[C@H](C)NC(=O)[C@H](C)NC(=O)[C@H](CCC(=O)O)NC(=O)[C@H](CC(=O)O)NC1=O [I-152, Ac-Ala-Asp-Ile-RdN-Asp-Glu-Ala-Ala-Phe-Ala-S7-Phe-Trp-His-NH2]
2160 | – | – | 2.06 | – | CC(=O)N1CCC[C@]12CC=CCCCC1(CCCC=CCCCCCC[C@@](C)(C(=O)N[C@@H](Cc3ccccc3)C(=O)N[C@@H](Cc3c[nH]c4c(F)cccc34)C(=O)N[C@@H](CCC(N)=O)C(N)=O)NC(=O)[C@H](C(C)C)NC(=O)[C@H](Cc3ccccc3)NC(=O)[C@H](C)NC(=O)[C@H](C)NC(=O)[C@H](CCC(=O)O)NC(=O)[C@H](CC(=O)O)NC1=O)NC(=O)[C@H](C)NC(=O)[C@H](CC(=O)O)NC2=O (stereo partly drawn) [I-166, Ac-PL3-Asp-Ala-B5-Asp-Glu-Ala-Ala-Phe-Val-S8-Phe-7FW-Gln-NH2]
2800 | – | – | 2.07 | – | CC(=O)N1CCC[C@]12CC=CCCCC1(CCCC=CCCCCCC[C@@](C)(C(=O)N[C@@H](Cc3ccccc3)C(=O)N[C@@H](Cc3c[nH]c4ccccc34)C(=O)N[C@@H](CCC(N)=O)C(N)=O)NC(=O)[C@H](C(C)C)NC(=O)[C@H](Cc3ccccc3)NC(=O)[C@H](C)NC(=O)[C@H](C)NC(=O)[C@@H](CCC(=O)O)NC(=O)[C@H](CC(=O)O)NC1=O)NC(=O)[C@H](C)NC(=O)[C@H](CC(=O)O)NC2=O (stereo partly drawn) [I-182, Ac-PL3-Asp-Ala-B5-Asp-DGlu-Ala-Ala-Phe-Val-S8-Phe-Trp-Gln-NH2]
– | – | – | – | 2.21 | CC(=O)N1CCC[C@]12CC=CCCCC1(CCCC=CCCCCCC[C@@](C)(C(=O)N[C@@H](Cc3ccsc3)C(=O)N[C@@H](Cc3csc4ccccc34)C(=O)N[C@@H](CCC(N)=O)C(=O)N[C@H](C)C(=O)N[C@@H](C)C(=O)N[C@@H](C)C(N)=O)NC(=O)[C@H](CC(N)=O)NC(=O)[C@H](Cc3ccccc3)NC(=O)[C@H](C)NC(=O)[C@H](C)NC(=O)[C@H](CC(=O)O)NC(=O)[C@H](CC(=O)O)NC1=O)NC(=O)[C@H](CC(C)(C)C)NC(=O)[C@H](CC(=O)O)NC2=O (stereo partly drawn) [I-875, Ac-PL3-Asp-Npg-B5-Asp-Asp-Ala-Ala-Phe-Asn-S8-3Thi-BztA-Gln-dAla-Ala]
– | – | 1.759 | – | – | COCCOCCC(=O)NCCCC[C@@H]1NC(=O)[C@H](C)NC(=O)[C@H](CC(=O)O)NC(=O)[C@H](CC(=O)O)NC(=O)C2(CCCC=CCCCOC(=O)N3CC[C@@](C(=O)N[C@@H](Cc4ccsc4)C(=O)N[C@@H](Cc4csc5ccccc45)C(=O)N[C@@H](CCC(N)=O)C(N)=O)(C3)NC(=O)[C@H](CC(N)=O)NC(=O)[C@H](Cc3ccccc3)NC1=O)CCCC=CC[C@]1(CCCN1C(C)=O)C(=O)N[C@@H](CC(=O)O)C(=O)N[C@@H](CC(C)(C)C)C(=O)N2 (stereo partly drawn) [I-893, Ac-PL3-Asp-Npg-B5-Asp-Asp-Ala-[mPEG2]Lys-Phe-Asn-PyrS2-3Thi-BztA-Gln-NH2]
